According to ChEMBL document CHEMBL1821652, “QSAR models for predicting enzymatic hydrolysis of new chemical entities in 'soft-drug' design” (Bioorg Med Chem, 2009):

Assay: Half life in human plasma
Assay type: ADME, cell-free

SMILES | half-life [min]
CCCCOC(=O)[C@H](Cc1ccccc1)NC(=O)CN.Cl | 11.5
O=C(CCCCCCCCC(=O)Oc1ccc2c3c1O[C@H]1[C@@H](O)CC[C@@]4(O)[C@@H](C2)N(CC2CCC2)CC[C@]314)Oc1ccc2c3c1O[C@H]1[C@@H](O)CC[C@@]4(O)[C@@H](C2)N(CC2CCC2)CC[C@]314 [DINALBUPHINE SEBACATE] | 5.4
CCCCC(=O)OC[C@H]1O[C@@H](n2cnc3c(NC4CCCC4)ncnc32)[C@H](O)[C@@H]1O | 18
CCCCN(CCCC)Cc1cccc(C(=O)OCCOCn2cnc3c(=O)[nH]c(N)nc32)c1 | 2.3
Cc1cn([C@H]2C=C[C@@H](COC(=O)CN3CCN(c4cc5c(cc4F)c(=O)c(C(=O)O)cn5C4CC4)CC3)O2)c(=O)[nH]c1=O | 240
CC(=O)Oc1ccc(CCNC(=O)CCCC[C@@H]2CCSS2)cc1OC(C)=O | 10.3
CS(=O)(=O)N(COC(=O)c1ccccc1)c1ccc([N+](=O)[O-])cc1Oc1ccccc1 | 1.93
CSCOC(=O)[C@@]1(O)CC[C@H]2[C@@H]3CCC4=CC(=O)CC[C@]4(C)[C@H]3[C@@H](O)C[C@@]21C | 2280
CC(=O)N(c1onc(C)c1C)S(=O)(=O)c1ccc(N)cc1 [SULFISOXAZOLE ACETYL] | 0.3
C[C@]12CCC(=O)C=C1CC[C@@H]1[C@@H]2[C@@H](O)C[C@@]2(C)[C@H]1CC[C@]2(O)C(=O)OCCl | 132
C[C@H](C(=O)OCCn1ccnc1)c1ccc(-c2ccccc2)c(F)c1 | 445
Nc1nc2c(ncn2COCCOC(=O)c2cccc(CN3CCOCC3)c2)c(=O)[nH]1 | 4.6
CCOC(=O)[C@H]1O[C@@H](Oc2cc3oc(-c4ccc(O)cc4)cc(=O)c3c(O)c2O)[C@H](O)[C@@H](O)[C@@H]1O | 273
CCN(CC)CC(=O)N(COC(=O)C(C)(C)C)c1c(C)cccc1C | 280
Cc1ncc([N+](=O)[O-])n1CCOC(=O)c1ccccc1C(=O)OCCn1c([N+](=O)[O-])cnc1C | 743
O=C(O[C@H]1C[C@H](n2cc(F)c(=O)[nH]c2=O)O[C@@H]1CO)[C@@H]1CCCN1 | 13.8
CN(CC(=O)O)C(=O)[C@@H](N)CCC(=O)OCc1ccccc1 | 73.2
COC(=O)[C@@H](C)c1ccc2cc(OC)ccc2c1 | 316
CC(C)(C)OC(=O)Oc1ccc2c3c1O[C@H]1C(=O)CC[C@@]4(O)[C@@H](C2)N(CC2CC2)CC[C@]314 | > 1440
CCCC(CCC)C(=O)OCN(C)C(=O)c1ccccc1 | 384
CCCCC(=O)OCn1cnc2c1c(=O)n(C)c(=O)n2C | 0.19
Cc1noc(N(COC(=O)c2ccccc2)S(=O)(=O)c2ccc(N)cc2)c1C | 5.78

SMILES | half-life [min]
COC(=O)[C@H](Cc1ccc(OC(C)=O)c(OC(C)=O)c1)NC(=O)CCCC[C@@H]1CCSS1 | 52.8
C[C@H](NC(=O)[C@H](N)CC(=O)OCc1ccc([N+](=O)[O-])cc1)C(=O)O | 7.2
CCCCCCCCCCCC(=O)Oc1c(-c2ccc(O)c(O)c2)oc2cc(O)cc(O)c2c1=O | 73.2
CCC[C@@H]1O[C@@H]2C[C@H]3[C@@H]4C[C@H](F)C5=CC(=O)CC[C@]5(C)[C@@]4(F)[C@@H](O)C[C@]3(C)[C@]2(S[C@@H]2CCOC2=O)O1 | 5
Cc1nccn1CCOC(=O)[C@@H](C)c1ccc(-c2ccccc2)c(F)c1 | 355
CCOC(=O)CNC(=O)OCOC(=O)Cc1ccccc1Nc1c(Cl)cccc1Cl | 4.17
C[C@@H](C(=O)OCC(=O)N(C)C)c1ccc(-c2ccccc2)c(F)c1 | 1.1
O=C(OC[C@H]1O[C@@H](n2cnc3c(NC4CCCC4)ncnc32)[C@H](O)[C@@H]1O)C1CCCCC1 | 45
CCC[C@@H]1O[C@@H]2C[C@H]3[C@@H]4C[C@H](F)C5=CC(=O)C=C[C@]5(C)[C@@]4(F)[C@@H](O)C[C@]3(C)[C@]2(S[C@H]2CCOC2=O)O1 | 4
COc1ccc2cc([C@H](C)C(=O)OCCOCCO)ccc2c1 | 38.6
O=C(OC[C@H]1O[C@@H](n2cc(F)c(=O)[nH]c2=O)C[C@@H]1O)[C@@H]1CCCN1 | 5.7
Cc1cn([C@H]2C=C[C@@H](COC(=O)CN(C)C)O2)c(=O)[nH]c1=O | 30
CCOC(=O)CN(COC(=O)[C@@H]1N2C(=O)[C@@H](NC(=O)Cc3ccccc3)[C@H]2SC1(C)C)C(=O)c1ccccc1 | 5.1
COC(=O)[C@@H]1CCCN1C(=O)OCOC(=O)c1ccccc1 | 3.48
CC(C)C[C@H](NC(=O)[C@H](Cc1ccccc1)NC(=O)CNC(=O)CN1C(=O)[C@H](Cc2ccc(O)cc2)NC12CCCC2)C(=O)O | 334
CCOC(=O)CN(C)C(=O)OCOC(=O)[C@@H](C)c1ccc2cc(OC)ccc2c1 | 2.72
CCOC(=O)CNC(=O)OCOC(=O)c1ccccc1Nc1cccc(C(F)(F)F)c1 | 21.8
Cc1nccn1CCOC(=O)[C@@H](C)c1ccc(CC(C)C)cc1 | 135
COc1ccccc1OC(=O)c1ccccc1Nc1cccc(C)c1C [MEFENAMIC ACID GUAIACOL ESTER] | 914
C[C@H](NC(=O)[C@H](N)CC(=O)OCc1ccc(F)cc1)C(=O)O | 260
Cc1ncc([N+](=O)[O-])n1CCOC(=O)CCCCCCCCC(=O)OCCn1c([N+](=O)[O-])cnc1C | 10.2
CC(C)C[C@H](NC(=O)[C@H](Cc1ccccc1)NC(=O)CNC(=O)CN1C(=O)[C@H](Cc2ccc(O)cc2)NC12CCCCC2)C(=O)O | 730

SMILES | half-life [min]
CCOC(=O)CN(COC(=O)[C@@H](C)c1ccc2cc(OC)ccc2c1)C(=O)c1ccccc1 | 78
CN(C)Cc1ccc(C(=O)OCCOCn2cnc3c(=O)[nH]c(N)nc32)cc1 | 33
CCCCC/C=C\C/C=C\C/C=C\CCCCC(=O)OCn1cnc2c1c(=O)n(C)c(=O)n2C | 27.3
CC(=O)OCOC(=O)N(C)/N=N/c1ccc(C)cc1 | 15
C[C@H](NC(=O)[C@H](N)CCC(=O)OCc1ccc(F)cc1)C(=O)O | 120
CCCSc1ccc2c(c1)nc(NC(=O)OC)n2COC(=O)c1ccc(CN)cc1.Cl.Cl | 55.8
NCCCC[C@H](N)C(=O)OC[C@H]1O[C@@H](n2cc(F)c(=O)[nH]c2=O)C[C@@H]1O | 38.8
CCN(CC)C(=O)COC(=O)[C@H]1O[C@@H](Oc2cc3oc(-c4ccc(O)cc4)cc(=O)c3c(O)c2O)[C@H](O)[C@@H](O)[C@@H]1O | 10
CC(C)C[C@@H](NC(=O)[C@H](Cc1ccccc1)NC(=O)CNC(=O)[C@@H](C)NC(=O)[C@@H](N)Cc1ccc(O)cc1)C(=O)O [DADLE] | > 1440
CCOC(=O)[C@@H](N)Cc1ccc(O)c(O)c1 [ETILEVODOPA] | 100
COC(=O)O[C@]1(C(=O)OCCl)CC[C@H]2[C@@H]3CCC4=CC(=O)CC[C@]4(C)[C@H]3[C@@H](O)C[C@@]21C | 960
CCOC(=O)CN(C)C(=O)OCOC(=O)c1ccccc1 | 0.41
CCCSc1ccc2nc(NC(=O)OC)n(C(=O)OCC)c2c1 | 7.19
Cc1cn([C@H]2C=C[C@@H](COC(=O)CNNC(=O)c3ccncc3)O2)c(=O)[nH]c1=O | 60
CCOC(=O)CN(COC(=O)[C@@H]1N2C(=O)[C@@H](NC(=O)c3c(-c4c(Cl)cccc4Cl)noc3C)[C@H]2SC1(C)C)C(=O)c1ccccc1 | 10.1
Nc1nc(O)c2ncn(COCCOC(=O)c3ccc(CN4CCOCC4)cc3)c2n1 | 3.7
Cc1cc(C)nc(N(COC(=O)c2ccccc2)S(=O)(=O)c2ccc(N)cc2)n1 | 41.4
CCOC(=O)CNC(=O)OCOC(=O)c1cccnc1 | 0.43
CCCCCCCCOC(=O)[C@H](Cc1ccccc1)NC(=O)CN.Cl | 42.5
Cc1nccn1CCOC(=O)[C@H](C)c1ccc(-c2ccccc2)c(F)c1 | 38
CCOC(=O)[C@@H](C)c1ccc(CC(C)C)cc1 | 15900
Cc1ncc([N+](=O)[O-])n1CCOC(=O)CCCC(=O)OCCn1c([N+](=O)[O-])cnc1C | 36.6

SMILES | half-life [min]
CCOC(=O)c1ccc(/N=N/N(C)C(=O)OCOC(=O)c2ccccc2O)cc1 | 34
CC(C)Cc1ccc([C@H](C)C(=O)OCCn2ccnc2)cc1 | 960
CCC(CC)C(=O)Oc1ccc2c3c1O[C@H]1C(=O)CC[C@@]4(O)[C@@H](C2)N(CC2CC2)CC[C@]314 | 2680
CC1(C)O[C@@H]2C[C@H]3[C@@H]4C[C@H](F)C5=CC(=O)C=C[C@]5(C)[C@@]4(F)[C@@H](O)C[C@]3(C)[C@]2(S[C@H]2CCOC2=O)O1 | 4
CCC(=O)Oc1c(-c2ccc(O)c(O)c2)oc2cc(O)cc(O)c2c1=O | 31.2
CCN(CC)C(=O)COC(=O)[C@H](C)c1ccc(CC(C)C)cc1 | 1
Nc1nc2c(ncn2COCCOC(=O)c2cccc(CN3CCCCC3)c2)c(=O)[nH]1 | 8.5
CC(C)Cc1ccc([C@@H](C)C(=O)OCCn2ccnc2)cc1 | 19
N[C@@H](CC(=O)O)C(=O)O[C@H]1C[C@H](n2cc(F)c(=O)[nH]c2=O)O[C@@H]1CO | 53.9
CN(C)Cc1cccc(C(=O)OCCOCn2cnc3c(=O)[nH]c(N)nc32)c1 | 7
CC(C)(C)C(=O)Oc1ccc2c3c1O[C@H]1C(=O)CC[C@@]4(O)[C@@H](C2)N(CC2CC2)CC[C@]314 | 562
O=C(CCCC[C@@H]1CCSS1)NCCc1ccc(O)c(O)c1 | 81
Nc1ccc(S(=O)(=O)N(COC(=O)c2ccccc2)c2cncs2)cc1 | 0.12
CC(C)C[C@H]1NC(=O)[C@H](Cc2ccccc2)NC(=O)CNC(=O)[C@@H](C)NC(=O)[C@H](Cc2ccc(O)cc2)NC(=O)/C=C\c2ccccc2OCOC1=O | 264
CCN(CC)Cc1ccc(C(=O)OCCOCn2cnc3c(=O)[nH]c(N)nc32)cc1 | 17
CCCCC(=O)OCOC(=O)Cc1c(C)n(C(=O)c2ccc(Cl)cc2)c2ccc(OC)cc12 | 124
CCN(CC)C(=O)COC(=O)[C@H](C)c1ccc(-c2ccccc2)c(F)c1 | 1.5
N[C@@H](CC(=O)O)C(=O)OC[C@H]1O[C@@H](n2cc(F)c(=O)[nH]c2=O)C[C@@H]1O | 38.6
N[C@@H](Cc1ccc(O)c(O)c1)C(=O)OCCCCO | 105
O=C(OCc1ccccc1)[C@H]1O[C@@H](Oc2cc3oc(-c4ccc(O)cc4)cc(=O)c3c(O)c2O)[C@H](O)[C@@H](O)[C@@H]1O | 88
CCOC(=O)CNC(=O)OCOC(=O)C(C)(C)Oc1ccc(Cl)cc1 | 1.63
